Read-outs that look alike come from different tables or passages of the source.
Legend:
c-Myc = c-Myc (UniProt P01106); test: cell-based or functional assay
MCF-7 cells [1] = test: Dox/etoposide toxicity after pretreatment with DFMO and/or Pen-ELP-H1 (MTS); type: cell-based; details: then Dox 750 nM for 72 h
Procedure: FIG. 33-1 is a set of graphs that show proliferation with DFMO and Dox or Etoposide. Cells were pretreated with 20 μM Pen-ELP-H1 or 50 μM DFMO on day 1, and treated with 750 nM Dox (A) or 200 μM etoposide (B) on day 4. Cell viability was determined on day 7 using the MTS cell viability assay. Results represent the mean±SEM of 3 independent experiments.
As a transcription factor, c-Myc influences the transcription levels of a large variety of genes. One of the genes under c-Myc control encodes the enzyme ODC (140). ODC catalyzes the first and rate-limiting step in the synthesis of cellular polyamines (148). […] Above, it was shown that interruption of the c-Myc/Max heterodimer by the Pen-ELP-H1 polypeptide caused a reduction in the steady-state levels of ODC mRNA to less than 40% of control levels (93). This observation led to the hypothesis that modulation of Dox and etoposide toxicity may be due to a reduction in the amount of ODC in the cell. In order to test this hypothesis, a combination of pretreatment with the ODC inhibitor DFMO and/or Pen-ELP-H1 was used in the Dox and etoposide toxicity assay. MCF-7 cells were pretreated with Pen-ELP-H1 (20 μM), DFMO (50 μM), or both before a 72 h exposure to Dox (750 nM) or etoposide (200 μM). […] Similar results were obtained with Pen-ELP-H1 and/or DFMO combined with etoposide (FIG. 33-1 B).

MES-SA cells = test: Drug IC50 with and without Pen-ELP-H1 pretreatment; type: cell-based; details: for IC50: Homo sapiens
Procedure: (§1) Table 4. IC50 values were collected for HeLa and MES-SA cells. The Dox and etoposide IC50 was determined with and without Pen-ELP-H1 pretreatment. Curves were fit using an exponential equation, and the IC50 value shown represents the mean±SEM of at least 5 independent determinations each performed with 4 replicates per drug concentration. Statistical significance was assessed using an unpaired Student's t-test.

HeLa cells = test: Drug IC50 with and without Pen-ELP-H1 pretreatment; type: cell-based, human; details: for IC50: Homo sapiens
Procedure: as §1

MCF-7 cells [2] = test: Drug IC50 with and without polypeptide pretreatment (MTS cell viability assay); type: cell-based; details: for IC50: Homo sapiens, MCF7
Procedure: The effect of drug concentration on cell viability for Dox (A) or etoposide (B) was determined with and without Pen-ELP-H1 pretreatment. Cells were pretreated on day 1 with 20 μM Pen-ELP-H1 and treated on day 4 with drug. Viability was determined on day 7 using the MTS cell viability assay. A single representative experiment is shown (error bars=SD).
The ability of Pen-ELP-H1 to enhance the effectiveness of chemotherapeutic agents was tested in MCF-7 breast cancer cells. Cells were treated on day 1 with 20 μM Pen-ELP-H1 or a control polypeptide which lacks the c-Myc inhibitory sequence (Pen-ELP) for 1 h, rinsed, and placed in fresh media for 3 days. On day 4, the cells were exposed to the drugs at various concentrations for 72 h, and viability was assessed using the MTS cell viability assay. […] Data from the MTS assay was averaged and fit using an exponential equation in order to calculate the IC50 with and without pretreatment.
Table 3. […] Statistical significance was assessed using an unpaired Student's t-test.

MCF-7 cells [3] = test: Cell cycle distribution by BrdU and propidium iodide flow cytometry; type: cell-based; details: for G1 fraction / S phase fraction: day 5; for effect on cell cycle distribution: agent alone (Pen-ELP-H1 20 μM, Dox 100 nM, etoposide 1 μM)
Procedure: FIG. 31 is a set of graphs that show cell cycle analysis of MCF-7 Cells after Pen-ELP-H1 Pretreatment before Dox or Etoposide. A. Cells were pretreated with 20 μM Pen-ELP-H1 on day 1 and 100 nM Dox or 1 μM etoposide on day 4 and analyzed on day 5 by flow cytometry with BrdU and propidium iodide staining Raw data for a single representative experiment is shown. 4 independent experiments with Dox (B) and etoposide (C) were averaged. Percentages were determined by analysis of 5000 cells/sample, and results shown represent the mean±SEM.
To gain more insight into the effect of polypeptide and drug treatment, the cell cycle distribution of MCF-7 cells was examined. Cells were treated as above with 20 μM Pen-ELP-H1 on day 1 and Dox (100 nM) or etoposide (1 μM) on day 4. On day 5, the cells were pulsed with BrdU and stained with propidium iodide for flow cytometric analysis of the cell cycle distribution. BrdU was used to accurately estimate the fraction of cells in S-phase, and this was combined with propidium iodide staining to denote each phase of the cell cycle (FIG. 31A). […] The pattern observed with Dox was enhanced upon pretreatment with Pen-ELP-H1, where the G1 fraction increased from about 48% to 53%, and the S phase fraction was reduced from 8% to 5% as compared to treatment with Dox alone (FIG. 31B).

Panc-1 cells = test: Panc-1 proliferation with 5-FU alone or after Bac7-ELP1-p21 pretreatment (MTS); type: cell-based, human
Procedure: Panc-1 cells were treated for 72 h with 5-F-U with or without pre-treatment with Bac7-ELP1-p21 for 1 hr at 42° C. Cell proliferation was assessed by the MTS assay. Bars, SEM of 3 experiments.
Resistance to Current Chemotherapeutic Agents: One of the therapeutic agents currently used in the clinical setting for pancreatic cancer is 5-Fluorouracil (5-FU).

[4] = no pretreatment, read-out: IC50 (mean ± SEM)
[5] = read-out: IC50 after Pen-ELP-H1 pretreatment (mean ± SEM)
[6] = 20 μM Pen-ELP on day 1, drug on day 4 for 72 h, read-out: IC50 after Pen-ELP pretreatment (mean ± SEM)
[7] = 20 μM Pen-ELP-H1 on day 1, drug on day 4 for 72 h, read-out: IC50 after Pen-ELP-H1 pretreatment (mean ± SEM)
[8] = no pretreatment, 72 h drug exposure, read-out: IC50 (mean ± SEM)
[9] = Dox 100 nM after 20 μM Pen-ELP-H1 pretreatment

Chain of UniProt P01106 (P01106 whole entry): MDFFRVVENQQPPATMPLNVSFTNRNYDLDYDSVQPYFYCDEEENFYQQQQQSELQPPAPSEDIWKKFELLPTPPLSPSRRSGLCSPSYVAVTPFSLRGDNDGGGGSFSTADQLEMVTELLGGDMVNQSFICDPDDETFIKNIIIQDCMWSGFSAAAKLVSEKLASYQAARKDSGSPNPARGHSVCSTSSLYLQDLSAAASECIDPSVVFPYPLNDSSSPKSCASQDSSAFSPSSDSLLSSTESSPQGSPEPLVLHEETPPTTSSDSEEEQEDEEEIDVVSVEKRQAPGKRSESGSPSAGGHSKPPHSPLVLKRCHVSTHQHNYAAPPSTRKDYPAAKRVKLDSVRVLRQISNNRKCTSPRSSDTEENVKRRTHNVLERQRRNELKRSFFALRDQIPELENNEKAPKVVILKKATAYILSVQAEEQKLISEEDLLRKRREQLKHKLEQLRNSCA

| Compound | reduction of IC50 by Pen-ELP-H1 pretreatment (MES-SA cells) | IC50 (MES-SA cells; [4]) | IC50 (MES-SA cells; [5]) | reduction of IC50 by Pen-ELP-H1 pretreatment (HeLa cells) | IC50 (HeLa cells; [4]) | IC50 (HeLa cells; [5]) | IC50 (MCF-7 cells [2]; [6]) | IC50 (MCF-7 cells [2]; [7]) | IC50 (MCF-7 cells [2]; [8]) | reduction in IC50 with Pen-ELP-H1 pretreatment (MCF-7 cells [2]; MCF-7) | effect on cell cycle distribution (MCF-7 cells [3]) | also measured |
| --- | --- | --- | --- | --- | --- | --- | --- | --- | --- | --- | --- | --- |
| Pen-ELP1-H1 |  |  |  |  |  |  |  |  |  |  |  | steady-state levels of ODC mRNA (% of control levels) (c-Myc): < 40 |
| NCCC[C@](N)(C(=O)O)C(F)F [DFMO, α-difluoromethylornithine] |  |  |  |  |  |  |  |  |  |  |  | enhancement of Dox-induced cell killing by pretreatment (MCF-7 cells [1]; Pen-ELP-H1 20 μM or DFMO 50 μM): enhanced the Dox-induced cell killing by similar amounts; enhancement of Dox toxicity by pretreatment with the combination of Pen-ELP-H1 and DFMO (MCF-7 cells [1]; Pen-ELP-H1 20 μM plus DFMO 50 μM): no greater enhancement of Dox toxicity than either agent used alone |
| CC[C@@]1(O)C(=O)OCc2c1cc1n(c2=O)Cc2cc3ccccc3nc2-1 [Camptothecin] |  |  |  |  |  |  | 0.229 ± 0.0464 µM | 0.235 ± 0.0058 µM | 0.235 ± 0.0098 µM |  |  | effect of Pen-ELP-H1 or Pen-ELP pretreatment on cell killing by the drug (MCF-7 cells [2]; MCF-7): no significant effect |
| O=c1[nH]cc(F)c(=O)[nH]1 [5-FU, 5-Fluorouracil] |  |  |  |  |  |  |  |  |  |  |  | sensitivity of Panc-1 cells to treatment (Panc-1 cells; 72 h): highly resistant; effect of increasing the concentration on cell proliferation (Panc-1 cells; beyond 10 μM, 72 h): no increasing effect on cell proliferation; cell proliferation after pretreatment with Bac7-ELP1-p21 (Panc-1 cells; pretreated 1 h at 42° C. with Bac7-ELP1-p21, then 5-FU 72 h): dramatically reduced |

The next lines start with results.

| reduction of IC50 by Pen-ELP-H1 pretreatment (MES-SA cells) | IC50 (MES-SA cells; [4]) | IC50 (MES-SA cells; [5]) | reduction of IC50 by Pen-ELP-H1 pretreatment (HeLa cells) | IC50 (HeLa cells; [4]) | IC50 (HeLa cells; [5]) | IC50 (MCF-7 cells [2]; [6]) | IC50 (MCF-7 cells [2]; [7]) | IC50 (MCF-7 cells [2]; [8]) | reduction in IC50 with Pen-ELP-H1 pretreatment (MCF-7 cells [2]; MCF-7) | Compound | effect on cell cycle distribution (MCF-7 cells [3]) | also measured |
| --- | --- | --- | --- | --- | --- | --- | --- | --- | --- | --- | --- | --- |
| 2 fold | 0.0337 ± 0.0071 µM | 0.0163 ± 0.0016 µM | 1.5 fold | 0.0139 ± 0.0013 µM | 0.0094 ± 0.0012 µM | 0.777 ± 0.0751 µM | 0.504 ± 0.0353 µM | 0.752 ± 0.0216 µM | about 1.5 fold | COc1cccc2c1C(=O)c1c(O)c3c(c(O)c1C2=O)C[C@@](O)(C(=O)CO)C[C@@H]3O[C@H]1C[C@H](N)[C@H](O)[C@H](C)O1 [Doxorubicin] | arrest in G1 and G2/M at the expense of S phase | G1 fraction (MCF-7 cells [3]; [9]): 53%; S phase fraction (MCF-7 cells [3]; [9]): 5%; G1 fraction (MCF-7 cells [3]; Dox 100 nM alone): about 48%; S phase fraction (MCF-7 cells [3]; Dox 100 nM alone): 8% |
| 1.8 fold | 17.3 ± 3.1 µM | 9.8 ± 3.1 µM | 1.4 fold | 0.631 ± 0.0592 µM | 0.465 ± 0.0454 µM | 187 ± 13.8 µM | 141 ± 3.5 µM | 210 ± 12.4 µM | about 1.5 fold | COc1cc([C@@H]2c3cc4c(cc3[C@@H](O[C@@H]3O[C@@H]5CO[C@@H](C)O[C@H]5[C@H](O)[C@H]3O)[C@H]3COC(=O)[C@H]23)OCO4)cc(OC)c1O [Etoposide] | accumulation in both G1 and G2/M | effect on cell cycle distribution after Pen-ELP-H1 pretreatment (MCF-7 cells [3]; 20 μM Pen-ELP-H1 day 1, etoposide 1 μM day 4): slightly enhanced the etoposide-induced accumulation in G1 |

Reference: patent US8841414B1, “Targeted delivery of therapeutic peptides by thermally responsive biopolymers” (University of Mississippi Medical Center, priority 2006, dated 2014)
